Laboratory results reported in US12714747B2, “Cytotoxic lipid particles targeted to tumor-associated myeloid cells (TAMCS) and synergized with radiation therapy for treating glioblastoma” (priority 2019, dated 2026).

Legend:
[1] = system: glioma-associated immune cells (TAMC, microglia, TIL); test: Ex vivo TAMC elimination assay; format: cell-based, mice; details: 0, 25, 50 nM Dina, 72 h
Procedure: TAMC targeting and elimination in ex vivo mice and human glioma models. Cell suspension collected from mouse or human samples was plated into 96 well U bottom plate. Cells were pre-blocked with Ultra-LEAF purified anti-mouse CD16/32 antibody or Human TruStain FcX (BioLegend) for 10 min at 4° C., followed by incubation with fluorescence labeled LNPs (0.15 mg lipids/ml) for 1 h at 37° C. in 5% CO2 humidified atmosphere. After gently washed with ice-cold PBS thrice, the cells were collected for staining with viability dye and antibodies. The cellular uptake was analyzed by flow cytometry. The ex vivo TAMC elimination assay was performed using cell suspension collected from mouse glioma samples. Cells were plated into 96 well U bottom plate in 50% complete RPMI and 50% conditioned media collected from GL261 glioma cell culture as aforementioned. Cells were subject to the treatment of αPD-L1/LNP/Dina or free Dina at a Dina concentration of 0, 25, and 50 nM for 72 h, and analyzed by flow cytometry.

PD-L1 = PD-L1 expression on TAMCs after IFNγ stimulation (RT-qPCR, flow cytometry); format: cell-based, C57BL/6 mice; details: as low as
Procedure: To detect the PD-L1 expression on TAMCs post treatments, in vitro generated TAMCs (8×10^5 cells/well) were seeded in 24-well plate. After 24 h of culture, cells were subject to different treatments (Dina, αPD-L1/LNP, or αPD-L1-LNP/Dina) at a Dina concentration of 25 nM. Selected groups of cells were exposed to IFNγ (PeproTech) stimulation at 10 ng/ml for 24 h. Cells were collected and washed, followed by qPCR analysis or antibody staining for flow cytometry. The effect of irradiation on PD-L1 expression on TAMCs was similarly assessed 72 h post irradiation.

TAMCs = test: Annexin V viability assay of TAMCs; format: cell-based, C57BL/6 mice; details: 24 h
Procedure: In vitro viability, gene expression, and PD-L1 expression of TAMCs post treatments. In vitro generated TAMCs (8×10^5 cells/well) were seeded in 24-well plate. After 24 h of culture, cells were incubated with αPD-L1-LNP/Dina, αPD-L1-LNP, or free Dina. At predetermined time intervals, the cells were collected and washed, followed by the annexin V assay (BioLegend). RNA isolation was processed using the RNEasy Plus Mini Kit (Qiagen), and total RNA was quantified by Nanodrop (Thermo Scientific). cDNA was synthesized using the iScript cDNA synthesis kit (Bio-Rad), and analyzed by qPCR analysis (Bio-Rad). Selected groups of cells were exposed to irradiation and collected 72 h post treatments for cell circle analysis using BrdU Flow Kit (Fisher) following the manufacturer's protocol.

## CCc1cnn2c(NCc3ccc[n+]([O-])c3)cc(N3CCCC[C@H]3CCO)nc12 [Dina, Dinaciclib]
[1]
  off-target toxicity to tumor-infiltrating lymphocytes / immune cell populations: severe off-target cytotoxicity
PD-L1
  dose attenuating PD-L1 expression on TAMCs: 25 nM
TAMCs
  cytotoxicity / viability of TAMCs: comparable cytotoxicity
